Assay results published in publication PMC5632533, “Mechanisms of action and in vivo antibacterial efficacy assessment of five novel hybrid peptides derived from Indolicidin and Ranalexin against Streptococcus pneumoniae” (PeerJ, 2017).

Columns and labels:
[1] = system: Streptococcus pneumoniae; settings: 30 pneumococcal clinical isolates; earlier study; ref Jindal et al., 2015; cited from earlier work
From the text: Table 1 Sequences and physicochemical properties of the template and hybrid AMPs. | column: MIC^a || One of the advantageous alternatives to today’s antibiotics is antimicrobial peptides (AMPs) ([Deslouches et al., 2013]; [Sánchez-Vásquez et al., 2013]). AMPs are synthesized by almost all living beings as the first line of defense in their immune system against microbial infection. Many aspects favor AMPs over traditional antibiotics: a broad range of antimicrobial activity against pathogenic micro-organisms (including viruses, parasites, bacteria, and fungi), microbial pathogens are less efficient in developing resistance against AMPs, as killing take place in a short contact time and AMPs c ...

[2] = system: S. pneumoniae; test: ATP efflux assay; type: cell-based, Streptococcus pneumoniae; settings: peptides 125 µg/ml (RN7-IN7 500 µg/ml); for ATP released from pneumococcal cells after 1 h / ATP released from pneumococcal cells after 3 h: 1 × 10^7 CFU/ml, luciferin/luciferase, ATP standard curve, mean ± SD, three independent experiments
Method: The amount of ATP released from pneumococcal cells incubated with hybrid peptides was measured as described previously, with a slight modification ([Tanida et al., 2006]). The ATP determination kit (Molecular Probes, Eugene, OR, USA) was used to measure the amount of ATP released based on the luciferin/luciferase method according to the manufacturer’s instructions. Briefly, S. pneumoniae were grown overnight on Columbia agar with 5% sheep blood. Bacterial suspensions were spectrophotometrically adjusted to (1 × 10^7 CFU/ml) and incubated with hybrid peptides RN7-IN10, RN7-IN9, RN7-IN8 and RN7-IN6 at 125 µg/ml and with RN7-IN7 at 500 µg/ml. The amount of ATP released form the pneumococcal cells were measured at three time points 1, 2 and 3 h. The samples were then centrifuged at 5,000 rpm for 5 min, and ATP efflux was subsequently estimated using an ATP standard curve. Values were obtained from three independent experiments. Ceftriaxone and erythromycin were used as positive controls.

[3] = system: S. pneumoniae; test: Transmission electron microscopy (TEM) of treated cells; type: cell-based, Streptococcus pneumoniae; settings: 10^8 CFU/ml in CAMHB; 8 × MIC (125 µg/ml; RN7-IN7 500 µg/ml); 1 h, 37 °C, 5% CO2
Method: Bacteria were prepared for TEM according to the guidelines of the Electron Microscopy Unit at the Faculty of Medicine, University of Malaya. S. pneumoniae cultures were grown overnight on Columbia agar with 5% sheep blood and suspended in cationally adjusted Mueller-Hinton broth (CAMHB) at 10^8 CFU/ml. […] Cells in cationally adjusted Mueller-Hinton broth (CAMHB) were used as an untreated control. After an hour of incubation, the pneumococcal cells were centrifuged to discard the medium, washed thrice with 10 mM phosphate buffer saline at pH 7.3 and fixed overnight in 4% (v/v) glutaraldehyde. All samples were washed twice with cacodylate buffer, incubated for 2 h in osmium tetroxide buffer (OsO4 1: 1 cacodylate), washed twice with cacodylate buffer and then incubated overnight in cacodylate buffer. All the samples were washed with distilled water twice and incubated for 10 min with uranyl acetate. After this, all samples were then washed twice with distilled water and dehydrated in an ascending series of ethanol: 35% (10 min), 50% (10 min), 70% (10 min), 95% (15 min), and thrice in 100% ethanol (15 min). After dehydration, samples were incubated with propylene oxide (15 min), propylene oxide 1:1 Epon (1 h), propylene oxide 1:3 Epon (2 h) and finally incubated overnight with Epon. All the samples were embedded in agar 100 resin at 37 °C for 5 hr and maintained at 60 °C until viewing. Reichert Ultramicrotome copper grids 3.05 mm (300 square mesh) (Agar Scientific, Essex, United Kingdom) were used to prepare Ultrathin sections. Ethanol-based uranyl acetate and lead citrate were used to stain the samples for 5 min. Transmission electron microscope (Leo Libra 120) was used to capture the images.

FLGGLIKWWPWRR-NH2 [RN7-IN6, hybrid peptide of ranalexin (residues 1-7) and indolicidin (residues 8-13)]
MIC, minimum inhibitory concentration [1]: 7.81 to 15.62 µg/mL
ATP released from pneumococcal cells after 1 h [2]: 14.8 ± 0.35 pM
ATP released from pneumococcal cells after 3 h [2]: 11.47 ± 0.32 pM
TEM: detachment of cell wall from cell membrane [3]: partial disconnection of the cell wall from the cell membrane

FLGGLIKWPWWPWRR-NH2 [RN7-IN8, hybrid peptide of ranalexin (residues 1-7) and indolicidin (residues 6-13)]
MIC, minimum inhibitory concentration [1]: 7.81 to 15.62 µg/mL
ATP released from pneumococcal cells after 1 h [2]: 39.03 ± 0.2 pM
ATP released from pneumococcal cells after 3 h [2]: 20.54 ± 1.03 pM
TEM: detachment of cell wall from cell membrane [3]: partial disconnection of the cell wall from the cell membrane

FLGGLIKKWPWWPWRR-NH2 [RN7-IN9, hybrid peptide of ranalexin (residues 1-7) and indolicidin (residues 5-13)]
MIC, minimum inhibitory concentration [1]: 7.81 to 15.62 µg/mL
ATP released from pneumococcal cells after 3 h [2]: 22.9 ± 3.22 pM
TEM: detachment of cell wall from cell membrane [3]: partial disconnection of the cell wall from the cell membrane

FLGGLIKWKWPWWPWRR-NH2 [RN7-IN10, hybrid peptide of ranalexin (residues 1-7) and indolicidin (residues 4-13)]
MIC, minimum inhibitory concentration [1]: 7.81 to 15.62 µg/mL
ATP released from pneumococcal cells after 1 h [2]: 54.5 ± 4.7 pM
ATP released from pneumococcal cells after 3 h [2]: 25.42 ± 3.51 pM
ATP released, Average 1hr ([2]; raw data sheet, mean of 3): 54.4965 pM
ATP released, Average 2hr ([2]; raw data sheet, mean of 3): 41.9293 pM
ATP released, Average 3hr ([2]; raw data sheet, mean of 3): 25.4295 pM
